Test results reported in patent US9206156B2, “Substituted indole derivatives” (GRÜNENTHAL GMBH, priority 2008, dated 2015).

Key:
[1] = target: T1, ORL1 receptor (Homo sapiens, UniProt P41146); test: ORL1 receptor binding assay with 3H-nociceptin/orphanin FQ (WGA-SPA beads); details: c=1 μM test substance; 0.5 nM 3H-nociceptin/orphanin FQ; membranes of recombinant CHO-ORL1 cells
T1 construct: expressed in transfected cells; host or cells: CHO (recombinant CHO-ORL1 cells), membranes
Procedure: Measurement of ORL1 Binding
The cyclohexane derivatives having the general formula I were investigated in a receptor binding assay with ^3H-nociceptin/orphanin FQ with membranes of recombinant CHO—ORL1 cells. This test system was conducted in accordance with the method described by Ardati et al. (Mol. Pharmacol., 51, 1997, p. 816-824). The concentration of ^3H-nociceptin/orphanin FQ in these tests was 0.5 nM. The binding assays were carried out with 20 μg amounts of membrane protein per 200 μl batch in 50 mM Hepes, pH 7.4, 10 mM MgCl2 and 1 mM EDTA. The binding to the ORL1 receptor was determined using 1 mg amounts of WGA-SPA beads (Amersham-Pharmacia, Freiburg, Germany), by incubation of the batch for one hour at room temperature and subsequent measurement in a Trilux scintillation counter (Wallac, Finland). The affinity is given in Table 1 as the nanomolar Ki value or in % inhibition at c=1 μM.

[2] = target: T2, human μ-opiate receptor (Homo sapiens, UniProt P35372); test: μ-opiate receptor binding assay with [3H] naloxone (WGA-SPA beads); details: 1 μmol/l test substance, 1 nmol/l [3H] naloxone, CHO-K1 cell membranes expressing human μ-opiate receptor
T2 construct: purchased NEN, Zaventem, Belgium RB-HOM; host or cells: CHO-K1 cells (membrane preparation)
T2 sequence (P35372 whole entry): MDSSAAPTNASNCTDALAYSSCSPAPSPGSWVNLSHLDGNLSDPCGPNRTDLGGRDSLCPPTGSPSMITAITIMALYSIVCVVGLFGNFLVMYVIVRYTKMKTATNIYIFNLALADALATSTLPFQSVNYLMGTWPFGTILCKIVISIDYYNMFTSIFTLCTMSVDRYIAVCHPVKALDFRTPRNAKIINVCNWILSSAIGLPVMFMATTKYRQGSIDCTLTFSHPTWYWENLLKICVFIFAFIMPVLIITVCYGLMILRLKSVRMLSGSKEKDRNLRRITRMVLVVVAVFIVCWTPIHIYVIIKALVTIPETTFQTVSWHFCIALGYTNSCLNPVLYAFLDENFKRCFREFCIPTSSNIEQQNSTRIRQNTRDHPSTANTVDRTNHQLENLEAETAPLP
Procedure: The receptor affinity to the human μ-opiate receptor was determined in a homogeneous batch in microtitre plates. To this end, dilution series of the substituted indole derivative to be tested were incubated for 90 minutes at room temperature with a receptor membrane preparation (15-40 μg protein per 250 μl incubation batch) of CHO-K1 cells, which express the human μ-opiate receptor (RB—HOM receptor membrane preparation from NEN, Zaventem, Belgium), in the presence of 1 nmol/l of the radioactive ligand [^3H] naloxone (NET719, NEN, Zaventem, Belgium) and 1 mg of WGA-SPA beads (wheat germ agglutinin SPA beads from Amersham/Pharmacia, Freiburg, Germany) in a total volume of 250 μl. 50 mmol/l tris-HCl supplemented with 0.05 wt. % sodium azide and 0.06 wt. % bovine serum albumin were used as the incubation buffer. In order to determine the non-specific binding, 25 μmol/l of naloxone were also added. At the end of the ninety-minute incubation period the microtitre plates were centrifuged for 20 minutes at 1000 g and the radioactivity was measured in a β counter (Microbeta-Trilux, PerkinElmer Wallac, Freiburg, Germany). The percentage displacement of the radioactive ligand from its binding to the human μ-opiate receptor was determined at a test substance concentration of 1 μmol/l and stated as the percentage inhibition (% inhibition) of the specific binding. In some cases the percentage displacement due to differing concentrations of the compounds having the general formula I to be tested was used to calculate the IC50 inhibition concentrations which bring about a 50-percent displacement of the radioactive ligand. Ki values for the test substances were obtained by extrapolation using the Cheng-Prusoff equation.

T1 sequence (P41146 whole entry): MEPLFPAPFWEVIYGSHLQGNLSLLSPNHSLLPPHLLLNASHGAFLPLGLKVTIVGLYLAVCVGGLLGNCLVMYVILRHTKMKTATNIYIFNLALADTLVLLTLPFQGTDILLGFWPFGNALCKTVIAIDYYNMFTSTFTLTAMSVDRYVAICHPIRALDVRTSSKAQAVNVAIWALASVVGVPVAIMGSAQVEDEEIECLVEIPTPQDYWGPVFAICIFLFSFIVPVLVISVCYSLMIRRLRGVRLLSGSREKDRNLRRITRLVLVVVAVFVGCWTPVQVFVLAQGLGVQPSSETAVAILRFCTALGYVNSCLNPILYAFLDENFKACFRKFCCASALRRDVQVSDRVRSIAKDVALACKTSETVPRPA

For `CN(CCN1CCC(c2ccccc2)(N2CCCC2)CC1)Cc1ccc2cc[nH]c2c1` [Example 143, N-((1H-indol-6-yl)methyl)-N-methyl-2-(4-phenyl-4-(pyrrolidin-1-yl)piperidin-1-yl)ethanamine], which inhibition at 1 µM [1] is on record?
Its inhibition at 1 µM is 13%.

What about the inhibition at 1 µM [2] of the same molecule?
Its inhibition at 1 µM is 71%.

What does the source list for `CN(C(=O)CCc1cn(C)c2ccccc12)C(C(=O)N1CCC(c2cccs2)(N(C)C)CC1)c1ccccc1` (stereo not shown) [Example 126, N-(2-(4-(dimethylamino)-4-(thiophen-2-yl)piperidin-1-yl)-2-oxo-1-phenylethyl)-N-methyl-3-(1-methyl-1H-indol-3-yl)propanamide]?
inhibition at 1 µM [1]: 40%; inhibition at 1 µM [2]: 90%

With `COc1ccc2[nH]c(C(=O)NCCC(=O)N3CCC(c4ccccc4)(N(C)C)CC3)cc2c1` [Example 129, N-(3-(4-(dimethylamino)-4-phenylpiperidin-1-yl)-3-oxopropyl)-5-methoxy-1H-indole-2-carboxamide] as the molecule, how does the inhibition at 1 µM [1] read?
Its inhibition at 1 µM is 37%.

What about the inhibition at 1 µM [2] of the same molecule?
Its inhibition at 1 µM is 73%.

What does the source list for `CN(C)C1(c2ccccc2)CCN(C(=O)C2CCCN(C(=O)Cc3c[nH]c4ccc(Br)cc34)C2)CC1` (stereo not shown) [Example 115, 2-(5-bromo-1H-indol-3-yl)-1-(3-(4-(dimethylamino)-4-phenylpiperidine-1-carbonyl)piperidin-1-yl)ethanone]?
inhibition at 1 µM [1]: 53%; inhibition at 1 µM [2]: 72%

How did the inhibition at 1 µM [1] turn out when `CCCCC1(N(C)C)CCN(CCN(C)C(=O)CC(c2c[nH]c3ccccc23)C(C)C)CC1` (stereo not shown) [Example 33, N-(2-(4-Butyl-4-(dimethylamino)piperidin-1-yl)ethyl)-3-(1H-indol-3-yl)-N,4-dimethylpentanamide] was run?
The inhibition at 1 µM was 27%.

What about the inhibition at 1 µM [2] of the same molecule?
The inhibition at 1 µM was 94%.

How did the inhibition at 1 µM [1] turn out when `CN(C)C1(c2cccs2)CCN(C(=O)CNC(=O)c2ccc3ccn(C)c3c2)CC1` [Example 109, N-(2-(4-(dimethylamino)-4-(thiophen-2-yl)piperidin-1-yl)-2-oxoethyl)-1-methyl-1H-indole-6-carboxamide] was run?
Its inhibition at 1 µM is 61%.

And the inhibition at 1 µM [2]?
The inhibition at 1 µM was 81%.

`CC(C)C(CC(=O)NCC(=O)N1CCC(c2cccs2)(N(C)C)CC1)c1c[nH]c2ccccc12` (stereo not shown) [Example 88, N-(2-(4-(dimethylamino)-4-(thiophen-2-yl)piperidin-1-yl)-2-oxoethyl)-3-(1H-indol-3-yl)-4-methylpentanamide] was tested. Which inhibition at 1 µM [1] did it give?
Its inhibition at 1 µM is 92%.

And the inhibition at 1 µM [2]?
Its inhibition at 1 µM is 94%.

`CN(CCN1CCC(c2ccccc2)(N(C)C)CC1)C(=O)c1ccc2cc[nH]c2c1` [Example 18, N-(2-(4-(Dimethylamino)-4-phenylpiperidin-1-yl)ethyl)-N-methyl-1H-indole-6-carboxamide] was tested. Which inhibition at 1 µM [1] did it give?
Its inhibition at 1 µM is 82%.

And the inhibition at 1 µM [2]?
Its inhibition at 1 µM is 95%.

How did the inhibition at 1 µM [1] turn out when `CN(C)C1(c2ccccc2)CCN(C(=O)C2CCCN(Cc3ccc4[nH]ccc4c3)C2)CC1` (stereo not shown) [Example 148, (1-((1H-indol-5-yl)methyl)piperidin-3-yl)(4-(dimethylamino)-4-phenylpiperidin-1-yl)methanone] was run?
The inhibition at 1 µM was 17%.

What about the inhibition at 1 µM [2] of the same molecule?
Its inhibition at 1 µM is 41%.

With `CN(C)C1(c2cccs2)CCN(C(=O)CC(NCc2ccc3cc[nH]c3c2)c2ccccc2)CC1` (stereo not shown) [Example 169, 3-((1H-indol-6-yl)methylamino)-1-(4-(dimethylamino)-4-(thiophen-2-yl)piperidin-1-yl)-3-phenylpropan-1-one] as the molecule, how does the inhibition at 1 µM [1] read?
The inhibition at 1 µM was 54%.

And the inhibition at 1 µM [2]?
Its inhibition at 1 µM is 91%.

With `CN(C)C1(c2cccs2)CCN(C(=O)CC(NC(=O)c2ccc3ccn(C)c3c2)c2ccccc2)CC1` (stereo not shown) [Example 101, N-(3-(4-(dimethylamino)-4-(thiophen-2-yl)piperidin-1-yl)-3-oxo-1-phenylpropyl)-1-methyl-1H-indole-6-carboxamide] as the molecule, how does the inhibition at 1 µM [1] read?
The inhibition at 1 µM was 68%.

What about the inhibition at 1 µM [2] of the same molecule?
The inhibition at 1 µM was 96%.

Which inhibition at 1 µM [1] does the source give for `CN(CCCN1CCC(c2cccs2)(N(C)C)CC1)C(=O)c1ccc2cc[nH]c2c1` [Example 17, N-(3-(4-(Dimethylamino)-4-(thiophen-2-yl)piperidin-1-yl)propyl)-N-methyl-1H-indole-6-carboxamide] here?
The inhibition at 1 µM was 38%.

What about the inhibition at 1 µM [2] of the same molecule?
Its inhibition at 1 µM is 70%.

With `CN(CCCN1CCC(c2cccs2)(N(C)C)CC1)C(=O)c1cc2cc(F)ccc2[nH]1` [Example 15, N-(3-(4-(Dimethylamino)-4-(thiophen-2-yl)piperidin-1-yl)propyl)-5-fluoro-N-methyl-1H-indole-2-carboxamide] as the molecule, how does the inhibition at 1 µM [1] read?
Its inhibition at 1 µM is 58%.

And the inhibition at 1 µM [2]?
Its inhibition at 1 µM is 88%.

What does the source list for `CN(C)C1(c2cccs2)CCN(CCNC(=O)CCc2c[nH]c3ccccc23)CC1` [Example 5, N-(2-(4-(Dimethylamino)-4-(thiophen-2-yl)piperidin-1-yl)ethyl)-3-(1H-indol-3-yl)propanamide]?
inhibition at 1 µM [1]: 89%; inhibition at 1 µM [2]: 98%

Which “% Inhibition (ORL1) at 1 μM” value [1] does the source give for `CCCCC1(N(C)C)CCN(CCN(C)C(=O)Cc2c[nH]c3cc(F)ccc23)CC1` [Example 44, N-(2-(4-Butyl-4-(dimethylamino)piperidin-1-yl)ethyl)-2-(6-fluoro-1H-indol-3-yl)-N-methylacetamide] here?
Its value is 50%.

And the “% Inhibition (μ) at 1 μM” value [2]?
The value was 92%.

How did the inhibition at 1 µM [1] turn out when `CN(C)C1(c2cccs2)CCN(C(=O)CNCc2cccc3cc[nH]c23)CC1` [Example 172, 2-((1H-indol-7-yl)methylamino)-1-(4-(dimethylamino)-4-(thiophen-2-yl)piperidin-1-yl)ethanone] was run?
The inhibition at 1 µM was 67%.

What about the inhibition at 1 µM [2] of the same molecule?
The inhibition at 1 µM was 96%.

What does the source list for `CN(CCCN1CCC(c2ccccc2)(N(C)C)CC1)C(=O)c1ccc2cc[nH]c2c1` [Example 56, N-(3-(4-(Dimethylamino)-4-phenylpiperidin-1-yl)propyl)-N-methyl-1H-indole-6-carboxamide]?
inhibition at 1 µM [1]: 35%; inhibition at 1 µM [2]: 71%

`CN(C)C1(c2cccs2)CCN(C(=O)CC(NCc2ccc3[nH]ccc3c2)c2ccccc2)CC1` (stereo not shown) [Example 165, 3-((1H-indol-5-yl)methylamino)-1-(4-(dimethylamino)-4-(thiophen-2-yl)piperidin-1-yl)-3-phenylpropan-1-one] was tested. Which inhibition at 1 µM [1] did it give?
The inhibition at 1 µM was 47%.

What about the inhibition at 1 µM [2] of the same molecule?
The inhibition at 1 µM was 92%.

With `CC(C)C(CC(=O)NCCN1CCC(c2cccs2)(N(C)C)CC1)c1c[nH]c2ccccc12` (stereo not shown) [Example 6, N-(2-(4-(Dimethylamino)-4-(thiophen-2-yl)piperidin-1-yl)ethyl)-3-(1H-indol-3-yl)-4-methylpentanamide] as the molecule, how does the “% Inhibition (ORL1) at 1 μM” value [1] read?
The value was 98%.

And the “% Inhibition (μ) at 1 μM” value ([2]; 1 µM)?
Its value is 102%.

Which results are given for `CN(C)C1(c2ccccc2)CCN(C(=O)C2CN(C(=O)c3cccc4c3ccn4C)c3ccccc32)CC1` (stereo not shown) [Example 114, (4-(dimethylamino)-4-phenylpiperidin-1-yl)(1-(1-methyl-1H-indole-4-carbonyl)indolin-3-yl)methanone]?
inhibition at 1 µM [1]: 56%; inhibition at 1 µM [2]: 90%

`CN(CCN1CCC(c2ccccc2)(N2CCCC2)CC1)Cc1ccc2[nH]ccc2c1` [Example 140, N-((1H-indol-5-yl)methyl)-N-methyl-2-(4-phenyl-4-(pyrrolidin-1-yl)piperidin-1-yl)ethanamine] was tested. Which inhibition at 1 µM [1] did it give?
Its inhibition at 1 µM is 17%.

What about the inhibition at 1 µM [2] of the same molecule?
The inhibition at 1 µM was 54%.

Which inhibition at 1 µM [1] does the source give for `CC(CC(=O)N(C)CCCN1CCC(c2ccccc2)(N(C)C)CC1)c1c[nH]c2ccccc12` (stereo not shown) [Example 59, N-(3-(4-(Dimethylamino)-4-phenylpiperidin-1-yl)propyl)-3-(1H-indol-3-yl)-N-methylbutanamide] here?
The inhibition at 1 µM was 60%.

And the inhibition at 1 µM [2]?
Its inhibition at 1 µM is 86%.

Which results are given for `CCCCC1(N(C)C)CCN(CCN(C)Cc2ccc3cc[nH]c3c2)CC1` [Example 144, 1-(2-(((1H-indol-6-yl)methyl)(methy)amino)ethyl)-4-butyl-N,N-dimethylpiperidin-4-amine]?
% Inhibition (ORL1) at 1 μM [1]: 39%; % Inhibition (μ) at 1 μM [2]: 90%
